Eight molecules from ChEMBL document CHEMBL1124571, “Cardiac glycoside-like structure and function of 5 beta,14 beta-pregnanes” (J Med Chem, 1989) can be followed below.

Molecules are shown by their SMILES.

The experiment addresses Sodium/potassium-transporting ATPase. Briefly: Compound is evaluated for inhibition of specific binding of [3H]ouabain to membranes from dog heart. Details: species or system Canis lupus familiaris.
As for `CC(=O)[C@@H]1CC[C@@]2(C)[C@@H](CC[C@@H]3[C@@H]2CC[C@]2(C)C([C@H](C)O)CC[C@@]32O)C1` (stereo partly drawn), the IC50 came out at 6 µM.

The molecule `CC(O)[C@H]1CC[C@@]2(O)[C@@H]3CCC4C[C@@H](O)CC[C@]4(C)[C@H]3CC[C@]12C` (stereo partly drawn) returned an IC50 of 6 µM.

The molecule `CC(=O)[C@H]1CC[C@@]2(O)[C@@H]3CC[C@H]4C[C@@H](O)CC[C@]4(C)[C@H]3CC[C@]12C` had an IC50 of 21 µM.

As to `CC(=O)[C@H]1CC[C@@]2(O)[C@@H]3CC[C@H]4CC(=O)CC[C@]4(C)[C@H]3CC[C@]12C`, the IC50 is 46 µM.

On to `CC(=O)[C@H]1CC[C@@]2(C)[C@@H](CC[C@@H]3[C@@H]2CC[C@]2(C)[C@@H](C(C)=O)CC[C@@]32O)C1`, for which the IC50 is 20 µM.

Regarding `CC(=O)[C@H]1CCC2(O)C3CCC4CC(O)CCC4(C)C3CCC12C` (stereo partly drawn), the IC50 is > 400 µM.

For `C[C@H](O)[C@H]1CC[C@@]2(O)[C@@H]3CCC4C[C@@H](OC5CC(O)C(O)C(CO)O5)CC[C@]4(C)[C@H]3CC[C@]12C` (stereo in doubt), the IC50 came to 0.06 µM.

`C[C@H](O)[C@H]1CC[C@@]2(O)[C@@H]3CCC4C[C@@H](OC5CC(O)C(O)C(CO)O5)CC[C@]4(C)[C@H]3CC[C@]12C` (stereo in doubt; 5): the IC50 was 0.4 µM.
